Data: publication PMC9114433 (Frontiers in Chemistry, 2022)
Values joined by “and” are separate entries in the source; they are usually repeats but may differ in a detail not shown here. Equal entries are not always repeated. Where two headings read alike, the source gives them in different places.

Tests used:
hHAO1 [1] = molecular target: T1, hHAO1 (Homo sapiens, UniProt Q9UJM8); settings: read-out: Km (substrate), published value; ref Wang et al. 2016; cited from earlier work
T1 sequence (Q9UJM8 1-368): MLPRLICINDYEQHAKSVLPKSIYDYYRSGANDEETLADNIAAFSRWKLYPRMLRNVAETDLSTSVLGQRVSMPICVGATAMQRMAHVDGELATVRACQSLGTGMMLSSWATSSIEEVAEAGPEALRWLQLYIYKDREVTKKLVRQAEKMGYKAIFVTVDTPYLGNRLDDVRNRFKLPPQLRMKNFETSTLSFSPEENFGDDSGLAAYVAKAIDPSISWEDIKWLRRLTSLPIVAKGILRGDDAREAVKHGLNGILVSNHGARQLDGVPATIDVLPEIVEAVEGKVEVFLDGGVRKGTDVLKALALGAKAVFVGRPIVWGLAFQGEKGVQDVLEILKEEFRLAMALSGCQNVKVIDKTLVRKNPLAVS

hHAO1 [2] = molecular target: T1, hHAO1; assay: Amplex Red fluorescence hydrogen peroxide activity assay; format: biochemical; parameters: A hHAO1 construct, encoding residues Met1-Ser368, with an engineered N-terminal His6-tag; His6 (N); made in house; host or cells: E. coli BL21 (DE3); settings: for Km: substrate titration, 30 nM hHAO1; for Vmax, Best-fit, 1 mM: Vmax in the presence of 1 mM compound, reaction rate as µM; for LLEAT (Astex lipophilic ligand efficiency score): from hHAO1 IC50; for inhibition mode with respect to glycolate: glycolate 0–500 µM, compound 0–1 mM, best fitting model in GraphPad Prism; for 95% CI α / α (Best-fit): mixed model inhibition fit; for 95% CI α: 95% confidence interval; for α (Best-fit): ratio between αKi (enzyme-substrate complex) and Ki (free enzyme); for fold increase in potency: relative to parent fragment scaffold (fragment 1 for 7, 8; fragment 2 for 9–12)
Experimental: hHAO1 activity in vitro was determined using the Amplex Red fluorescence hydrogen peroxide assay (Sigma Aldrich). […] The assay buffer contained 50 mM sodium phosphate, pH 7.4, 200 mM KCl, 2 mM MgCl2, and 0.01% TritonX. Determination of suitable assay parameters is described in the Supplementary Material. […] Following 10 min incubation at room temperature, 10 µl/well of Amplex Red reagent was added. […] All reactions were performed in technical triplicates for two different preparations of hHAO1. Reaction rate, defined as total H2O2 produced by the hHAO1 reaction, was determined from the H2O2 standard curve. […] This value is defined as the […] the inhibition constant for the free enzyme (Ki) and the inhibition constant for the enzyme-substrate complex (αKi) and can be related to the initial velocity (V0), substrate concentration ([S]), inhibitor concentration ([I]), and other kinetic parameters (Km, Vmax, Ki) as follows: V0 = Vmax [S]/(Km (1 + [I]/Ki) + [S](1 + [I]/(α∗Ki))). […]
6.2 Establishing parameters for Amplex Red activity assay
HAO1 activity was measured by coupling production of H2O2 by hHAO1 with the H2O2-dependent conversion of Amplex Red to its fluorescent product resorufin by […] peroxidase (Figure S7A).
To determine an incubation period resulting in measurements being made at initial rate conditions that also generated sufficient fluorescence signal, activity of 30 nM hHAO1 in the presence of 30 μM glycolate was measured every 1.5 minutes for a period of 60 minutes ([…]).
To confirm recombinant hHAO1 used in this work was active, the reaction rate of 30 nM hHAO1 was measured across a range of glycolate (Figure S7C) and 2-hydroxypalmitate (Figure S7D) concentrations.
(1 picture or pasted object on this page, not shown here)
Figure S8: Set-up of hHAO1 Amplex Red activity assay. (A) Schematic showing how hHAO1 activity is measured using the Amplex Red assay. (B) Plot of reaction rate (hydrogen peroxide […], µM) of 30 nM hHAO1 over time (minutes) in the presence of 30 µM glycolate. (C) Plot of relative fluorescence versus hydrogen peroxide concentration showing the standard curve fitted within the linear range of the Amplex Red reagent. (D) Michaelis-Menten plot of glycolate concentration versus reaction rate for 30 nM hHAO1. Inset: chemical structure of glycolate. (E) Michaelis-Menten plot of 2-hydroxypalmitate concentration versus reaction rate for 30 nM hHAO1. Inset: chemical structure of 2-hydroxypalmitate.

mGO = test system: mGO; parameters: method as in ref Martin-Higueras, Luis-Lima, and Salido 2016; Moya-Garzón et al., 2018; settings: purified mGO; ref Martin-Higueras, Luis-Lima, and Salido 2016; Moya-Garzón et al., 2018; cited from earlier work
[3] = test system: rat LCHAO (equivalent to hHAO2); parameters: method as in Chen et al., 2012; settings: ref Chen et al., 2012; cited from earlier work
[4] = molecular target: flavin dehydrogenase domain of yeast flavocytochrome b2; parameters: method as in Chen et al., 2012; settings: ref Chen et al., 2012; cited from earlier work
HAO = test system: HAO; parameters: method as in ref Chen et al., 2012; Martin-Higueras, Luis-Lima, and Salido 2016; settings: published kinetics against mGO, rat LCHAO, yeast flavocytochrome b2, hHAO1; ref Chen et al., 2012; Martin-Higueras, Luis-Lima, and Salido 2016; cited from earlier work
[5] = 30 nM hHAO1, 30 µM glycolate, log(inhibitor) vs response fit, read-out: IC50 (Best-fit)
[6] = 30 µM glycolate, 95% confidence interval of fit, read-out: 95% CI IC50
[7] = 95% confidence interval of fit, read-out: 95% CI Ki
[8] = at 1 mM compound, glycolate titration
[9] = compound 0–1 mM vs glycolate 0–500 µM, read-out: Ki (Best-fit)

| SMILES | IC50 (hHAO1 [2]; [5]) | IC50 (hHAO1 [2]; [6]) [µM] | Ki (hHAO1 [2]; [7]) [µM] | Vmax, Best-fit, 1 mM (hHAO1 [2]) [µM] | Ki (hHAO1 [2]; [9]) [µM] | LLEAT (Astex lipophilic ligand efficiency score) (hHAO1 [2]) [kcal/mol] | inhibition mode with respect to glycolate (hHAO1 [2]) | fold increase in potency (hHAO1 [2]) | further results |
| --- | --- | --- | --- | --- | --- | --- | --- | --- | --- |
| O=C(O)CO [glycolate] |  |  |  |  |  |  |  |  | Km (hHAO1 [1]): 74.5 µM; Km (hHAO1 [2]; read-out: Km (substrate)): 18.9 ± 0.8 µM |
| Cc1cc(NC(=O)N2CCN(c3cccc(O)c3)CC2)no1 [Compound 14] | 158 µM | 100 to 256 | 83.1 to 119 | 43.12 | 98.9 | 0.25 | mixed model inhibition |  | fold increase in Km (hHAO1 [2]; [8]): up to 4.9 fold; fold reduction in Vmax (hHAO1 [2]; [8]): up to 1.7 fold; 95% CI α (hHAO1 [2]): 9.41–59.28; α (Best-fit) (hHAO1 [2]): 18 and 18.4 |
| CC1=NC(=O)NC(=O)C1N (centres unmarked) [Compound 12] | 27 µM and 27.4 µM | 19.9 to 38 | 141 to 156 | 54.05 | 148 | 0.89 |  | more than 10 fold |  |
| Cn1cc(N)c(=O)n(C)c1=O [Compound 10] | 60 µM and 59.8 µM | 39.5 to 92 | 157 to 177 | 56.47 | 167 | 0.77 |  | more than 10 fold |  |
| Cn1cc(N)c(=O)[nH]c1=O [Compound 11] | 40 µM and 39.8 µM | 22.8 to 71.1 | 219 to 248 | 55.85 | 233 | 0.88 |  | more than 10 fold |  |
| O=C(C1CC1)N1CCN(c2ccc(F)cc2)CC1 [Fragment 3] |  |  |  |  |  |  |  |  | inhibition at 1000 µM (hHAO1 [2]; 1 mM fragment): 2%; inhibition at 10000 µM (hHAO1 [2]; 10 mM fragment): 19% |
| Nc1c(C(=O)O)[nH]c(=O)[nH]c1=O [Compound 9] | 93 µM and 93.3 µM | 48.1 to 193 | 113 to 126 | 56.25 | 119 | 0.71 |  | more than 10 fold | fold lower potency (hHAO1 [2]; relative to compound 12): 3 fold |
| O=C(Nc1cccnc1)N1CCN(c2ccccc2O)CC1 [Compound 13] | 44 µM and 43.8 µM | 27.4 to 71.4 | 59.1 to 82.9 | 27.28 | 69.7 | 0.30 | mixed model inhibition |  | fold increase in Km (hHAO1 [2]; [8]): up to 4 fold; 95% CI α (hHAO1 [2]): 7.84–27.32; α (Best-fit) (hHAO1 [2]): 13.27 |
| NCCNC(=O)c1n[nH]c2ccccc12 [Compound 8] | 81 µM and 81.3 µM | 57.1 to 117 | 37.7 to 44.3 | 54.60 | 40.9 | 0.47 | competitive inhibition | 5 fold |  |
| O=C(NO)c1n[nH]c2ccccc12 [Compound 7] | 153 µM | 110 to 215 | 56.7 to 64.2 | 47.76 | 60.4 | 0.40 |  | 5 fold |  |
| Cn1nc(C(N)=O)c2ccccc21 [Fragment 1] | 420 µM |  |  |  |  |  |  |  |  |
| CCCCCCCCCCCCCCC(O)C(=O)O (centres unmarked) [2-hydroxypalmitate] |  |  |  |  |  |  |  |  | fold higher Km (hHAO1 [2]; relative to glycolate): 100 fold; Km (hHAO1 [2]; read-out: Km apparent (substrate)): 1200 ± 400 µM |
| O=C(O)c1nnsc1Sc1ccc(Cl)cc1 [CCPST, 4-carboxy-5-[(4-chlorophenyl)sulfanyl]-1,2,3-thiadiazole] |  |  |  |  |  |  | competitive inhibition mode |  | IC50 (mGO): 43 to 198 µM; IC50 [3]: 3.6 µM; IC50 [4]: 6 µM; inhibition mode (HAO): non-competitive inhibition mode |
